Reference: patent publication US8410049B2, “Methods and kits for preventing hypoglycemia” (Cebix, priority 2009, dated 2013)

Tests used:
[1] = system: C-peptide antibodies; test: Antibody formation against C-peptide, ELISA; type: in vivo, human; conditions: baseline and after 3 and 6 months of C-peptide treatment
Source text: C-peptide plasma samples, C-peptide antibodies, and markers for atherosclerosis were processed (centrifuged, etc.) and stored frozen until transport to a central lab. HLA typing samples were shipped to a central lab for processing and storage until analysis. All samples there were labelled uniquely, including information about screening number and sample time.
Samples for the assessment of antibody formation were collected at baseline and at visits 2 and 4. An appropriate enzyme-linked immunoabsorbant assay (ELISA) method was developed and assessments carried out.

[2] = system: type 1 diabetes patients with peripheral neuropathy; conditions: in vivo

In the case of `CC(C)C[C@H](NC(=O)[C@H](C)NC(=O)[C@H](CC(C)C)NC(=O)[C@@H]1CCCN1C(=O)[C@H](CCC(N)=O)NC(=O)[C@H](CC(C)C)NC(=O)[C@H](CO)NC(=O)CNC(=O)[C@H](C)NC(=O)CNC(=O)[C@@H]1CCCN1C(=O)CNC(=O)CNC(=O)CNC(=O)[C@H](CC(C)C)NC(=O)[C@H](CCC(=O)O)NC(=O)[C@@H](NC(=O)[C@H](CCC(N)=O)NC(=O)CNC(=O)[C@@H](NC(=O)[C@H](CCC(N)=O)NC(=O)[C@H](CC(C)C)NC(=O)[C@H](CC(=O)O)NC(=O)[C@H](CCC(=O)O)NC(=O)[C@H](C)NC(=O)[C@@H](N)CCC(=O)O)C(C)C)C(C)C)C(=O)N[C@@H](CCC(=O)O)C(=O)NCC(=O)N[C@@H](CO)C(=O)N[C@@H](CC(C)C)C(=O)N[C@@H](CCC(N)=O)C(=O)O` [C-peptide, Recombinant human C-peptide], the “Antibody reactivity to C-peptide” value [1] was “no or very weak reactivity”, the “AEs of any severity: Abdominal pain” value [2] was 3 and the “AEs of any severity: Allergic urticaria” value [2] was 1. The “AEs of any severity: Anemia” value [2] was 1, the “AEs of any severity: Aptyalism” value [2] was 1 and the “AEs of any severity: Arterial disorder” value [2] was 1. The “AEs of any severity: Arthralgia” value [2] was 3, the “AEs of any severity: Arthritis” value [2] was 1 and the “AEs of any severity: Asthma” value [2] was 1. For the same compound, the “AEs of any severity: Back pain” value [2] was 2, the “AEs of any severity: Blister” value [2] was 2 and the “AEs of any severity: Bronchitis” value [2] was 1. For the same compound, the “AEs of any severity: Burning sensation” value [2] was 1, the “AEs of any severity: Candidiasis” value [2] was 2 and the “AEs of any severity: Cardiac arrhythmia” value [2] was 1. For the same compound, the “AEs of any severity: Cardiac murmur” value [2] was 1, the “AEs of any severity: Carpal tunnel syndrome” value [2] was 1 and the “AEs of any severity: Celiac disease” value [2] was 1. The “AEs of any severity: Chest pain” value [2] was 2, the “AEs of any severity: Cough” value [2] was 1 and the “AEs of any severity: Dacryocanaliculitis” value [2] was 1. For the same compound, the “AEs of any severity: Depression” value [2] was 1, the “AEs of any severity: Dermatitis allergic” value [2] was 1 and the “AEs of any severity: Dry skin” value [2] was 1. For the same compound, the “AEs of any severity: Epicondylitis” value [2] was 1, the “AEs of any severity: Epistaxis” value [2] was 1 and the “AEs of any severity: Exostosis” value [2] was 2. The “AEs of any severity: Eye injury” value [2] was 1, the “AEs of any severity: Eye operation” value [2] was 1 and the “AEs of any severity: Fatigue” value [2] was 2. The “AEs of any severity: Feeling abnormal” value [2] was 3, the “AEs of any severity: Fibroma” value [2] was 1 and the “AEs of any severity: Flatulence” value [2] was 1. For the same compound, the “AEs of any severity: Food poisoning” value [2] was 1, the “AEs of any severity: Gastritis” value [2] was 1 and the “AEs of any severity: Hematuria” value [2] was 1. The “AEs of any severity: Hemorrhage” value [2] was 1, the “AEs of any severity: Hepatic enzyme increase” value [2] was 2 and the “AEs of any severity: Hyperaesthesia” value [2] was 1 (1). For the same compound, the “AEs of any severity: Hypercalcemia” value [2] was 1, the “AEs of any severity: Hyperlipidemia” value [2] was 1 and the “AEs of any severity: Hypertension” value [2] was 1. The “AEs of any severity: Hyperthermeasthesia” value [2] was 2 (2), the “AEs of any severity: Hypoaesthesia” value [2] was 2 and the “AEs of any severity: Hypoglycemic coma” value [2] was 2. For the same compound, the “AEs of any severity: Hypotension” value [2] was 1, the “AEs of any severity: Injection site burning” value [2] was 1 (1) and the “AEs of any severity: Joint sprain ankle” value [2] was 1. For the same compound, the “AEs of any severity: Knee injury” value [2] was 1, the “AEs of any severity: Leucopenia” value [2] was 1 and the “AEs of any severity: Limb operation” value [2] was 1. The “AEs of any severity: Lymph node enlargement” value [2] was 1, the “AEs of any severity: Macular edema” value [2] was 1 and the “AEs of any severity: Menopausal disorder” value [2] was 1. The “AEs of any severity: Menstration irregular” value [2] was 1, the “AEs of any severity: Migraine” value [2] was 1 and the “AEs of any severity: Multiple sclerosis” value [2] was 1. For the same compound, the “AEs of any severity: Muscle cramp” value [2] was 1, the “AEs of any severity: Muscle spasm” value [2] was 1 and the “AEs of any severity: Muscular atrophy” value [2] was 1. The “AEs of any severity: Musculoskeletal chest” value [2] was 1, the “AEs of any severity: Nasopharyngitis” value [2] was 23 and the “AEs of any severity: Otitis” value [2] was 2. The “AEs of any severity: Pain in neck” value [2] was 1, the “AEs of any severity: Pain in shoulder” value [2] was 1 and the “AEs of any severity: Panic disorder” value [2] was 1. The “AEs of any severity: Pharyngitis” value [2] was 2, the “AEs of any severity: Pregnancy” value [2] was 2 and the “AEs of any severity: Pyrexia” value [2] was 3. The “AEs of any severity: Reflux gastritis” value [2] was 2, the “AEs of any severity: Restless legs syndrome” value [2] was 1 and the “AEs of any severity: Rheumarthritis” value [2] was 1. The “AEs of any severity: Rib fracture/injury” value [2] was 2, the “AEs of any severity: ST elevation (ECG)” value [2] was 1 and the “AEs of any severity: Scar” value [2] was 1. The “AEs of any severity: Sciatica” value [2] was 1, the “AEs of any severity: Season allergy” value [2] was 1 and the “AEs of any severity: Sensory loss” value [2] was 1. For the same compound, the “AEs of any severity: Sepsis” value [2] was 1, the “AEs of any severity: Sinusitis” value [2] was 2 and the “AEs of any severity: Skin infection” value [2] was 1. The “AEs of any severity: Stress disorder” value [2] was 1, the “AEs of any severity: Sweating increased” value [2] was 1 and the “AEs of any severity: Synovial disorder” value [2] was 1. For the same compound, the “AEs of any severity: Tachycardia (stress)” value [2] was 1, the “AEs of any severity: Tendinitis” value [2] was 1 and the “AEs of any severity: Tendinous contracture” value [2] was 1. For the same compound, the “AEs of any severity: Tendosynovitis stenosans” value [2] was 1, the “AEs of any severity: Tonsilitis” value [2] was 2 and the “AEs of any severity: Tooth extraction” value [2] was 1. The “AEs of any severity: Tooth infection” value [2] was 2, the “AEs of any severity: Tooth injury” value [2] was 1 and the “AEs of any severity: Torticollis” value [2] was 1. For the same compound, the “AEs of any severity: Upper respiratory tract infection” value [2] was 1, the “AEs of any severity: Vertigo” value [2] was 1 and the “AEs of any severity: Vision decreased” value [2] was 1. For the same compound, the “AEs of any severity: Vitamin B12 deficiency” value [2] was 1, the “AEs of any severity: Vitreous hemorrhage” value [2] was 1 and the “AEs of moderate intensity (M): Abdomnial pain” value [2] was “M (1)”. The “AEs of moderate intensity (M): Arthralgia” value [2] was “M (1)”, the “AEs of moderate intensity (M): Arthritis” value [2] was “M (1)” and the “AEs of moderate intensity (M): Arthropathy” value [2] was “M (1)”. The “AEs of moderate intensity (M): Back pain” value [2] was “M (1)”, the “AEs of moderate intensity (M): Bronchitis” value [2] was “M (1)” and the “AEs of moderate intensity (M): Carpal tunnel syndrome” value [2] was “M (1)”. For the same compound, the “AEs of moderate intensity (M): Celiac disease” value [2] was “M (1)”, the “AEs of moderate intensity (M): Dacryocanaliculitis” value [2] was “M (1)” and the “AEs of moderate intensity (M): Depression” value [2] was “M (1)”. For the same compound, the “AEs of moderate intensity (M): Dizziness” value [2] was “M (1)”, the “AEs of moderate intensity (M): Epicondylitis” value [2] was “M (1)” and the “AEs of moderate intensity (M): Fatigue” value [2] was “M (1)”. For the same compound, the “AEs of moderate intensity (M): Feeling abnormal” value [2] was “M (3)”, the “AEs of moderate intensity (M): Gastritis” value [2] was “M (1)” and the “AEs of moderate intensity (M): Gastroenteritis” value [2] was “M (3)”. The “AEs of moderate intensity (M): Hyperlipidemia” value [2] was “M (1)”, the “AEs of moderate intensity (M): Hypoglycemic coma” value [2] was “M (1)” and the “AEs of moderate intensity (M): Hypotension” value [2] was “M (1)”. For the same compound, the “AEs of moderate intensity (M): Knee injury” value [2] was “M (1)”, the “AEs of moderate intensity (M): Limb operation” value [2] was “M (1)” and the “AEs of moderate intensity (M): Migraine” value [2] was “M (1)”. The “AEs of moderate intensity (M): Muscle cramp” value [2] was “M (1)”, the “AEs of moderate intensity (M): Myalgia” value [2] was “M (2)” and the “AEs of moderate intensity (M): Nausea” value [2] was “M (1)”. The “AEs of moderate intensity (M): Otitis” value [2] was “M (1)”, the “AEs of moderate intensity (M): Pain in extremity” value [2] was “M (2)” and the “AEs of moderate intensity (M): Paraesthesia” value [2] was “M (1)”. For the same compound, the “AEs of moderate intensity (M): Pharyngitis” value [2] was “M (1)”, the “AEs of moderate intensity (M): Pyrexia” value [2] was “M (1)” and the “AEs of moderate intensity (M): Restless legs syndrome” value [2] was “M (1)”. The “AEs of moderate intensity (M): Rib fracture/injury” value [2] was “M (1); S (1)”, the “AEs of moderate intensity (M): ST elevation (ECG)” value [2] was “M (1)” and the “AEs of moderate intensity (M): Sciatica” value [2] was “M (1)”. For the same compound, the “AEs of moderate intensity (M): Stress disorder” value [2] was “M (1)”, the “AEs of moderate intensity (M): Tendinous” value [2] was “M (1)” and the “AEs of moderate intensity (M): Tonsillitis” value [2] was “M (1)”. For the same compound, the “AEs of moderate intensity (M): Vision decreased” value [2] was “M (1)”, the “AEs of moderate intensity (M): Vitreous hemorrhage” value [2] was “M (1)” and the “AEs of severe intensity (S): Diarrhea” value [2] was “S (1)”. For the same compound, the “AEs of severe intensity (S): Hepatic enzyme increase” value [2] was “S (1)”, the “AEs of severe intensity (S): Hyperglycemia” value [2] was “S (1)” and the “AEs of severe intensity (S): Hypoglycemia” value [2] was “M (1); S (1)”. For the same compound, the “AEs of severe intensity (S): Hypoglycemic coma” value [2] was “S (2)”, the “AEs of severe intensity (S): Pharyngitis” value [2] was “S (1)” and the “AEs of severe intensity (S): Pregnancy” value [2] was “S (1)”. For the same compound, the “AEs of severe intensity (S): Rib fracture/injury” value [2] was “M (1); S (1)”, the “AEs possibly related to study drug: Hepatic enzyme increase” value [2] was 1 and the “AEs possibly related to study drug: Hyperaesthesia” value [2] was 1 (1). For the same compound, the “AEs possibly related to study drug: Hyperglycemia” value [2] was 1 (1), the “AEs possibly related to study drug: Hyperthermeasthesia” value [2] was 2 (2) and the “AEs possibly related to study drug: Hypoglycemia” value [2] was 1. The “AEs possibly related to study drug: Injection site burning” value [2] was 1 (1), the “AEs possibly related to study drug: Pain in extremity” value [2] was 1 and the “Adverse drug reactions or significant changes in safety variables” value [2] was “no adverse drug reactions”. The “Number of AEs probably/possibly related to study drug: Hyperglycemia” value [2] was 1 (1), the “Number of AEs probably/possibly related to study drug: Hypoglycemia” value [2] was 1 and the “Number of AEs: Blood glucose fluctuation” value [2] was 0. For the same compound, the “Number of AEs: Hypoglycemic coma” value [2] was 2, the “Number of AEs: Hypothyroidism” value [2] was 0 and the “Number of AEs: Increased appetite” value [2] was 0. The “Occurrences of hypoglycemic coma” value [2] was 4, the “Serious adverse events (SAEs)” value [2] was “Two SAEs” and the Tolerability [2] was “well tolerated”. For the same compound, the Local reactions ([2]; sc) was “No local reactions”.
